Assay results published in PubChem BioAssay AID256 (DTP/NCI, 2004).
Where “and” joins values, the source holds several entries; their conditions need not be identical. Equal entries are not always repeated. Toxic doses and inconclusive results are not listed. The calls were made as follows: active = survival T/C of 150% or more; inactive = T/C below 125% in these data.

System: CD2F1 mice, L1210 leukemia ip, survival T/C
Assay: NCI In Vivo Anticancer Drug Screen. Data for tumor model L1210 Leukemia (intraperitoneal) in CD2F1 (CDF1) mice
Conditions: higher = longer survival
Outline: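 Transplantable tumor in mice; compound-treated vs vehicle-treated groups. Read-out = treated/control ratio of the measured endpoint.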

[1] = endpoint: mean survival time, dose: 50.0 mg/kg/injection, schedule: Q01DX009 (ip), vehicle: saline with Tween-80
[2] = endpoint: mean survival time, dose: 100.0 mg/kg/injection, schedule: Q01DX009 (ip), vehicle: saline with Tween-80
[3] = endpoint: mean survival time, dose: 200.0 mg/kg/injection, schedule: Q01DX009 (ip), vehicle: saline with Tween-80
[4] = endpoint: mean survival time, dose: 100.0 mg/kg/injection, schedule: Q01DX001 (ip), vehicle: saline with Tween-80
[5] = endpoint: mean survival time, dose: 200.0 mg/kg/injection, schedule: Q01DX001 (ip), vehicle: saline with Tween-80
[6] = endpoint: mean survival time, dose: 400.0 mg/kg/injection, schedule: Q01DX001 (ip), vehicle: saline with Tween-80
[7] = endpoint: mean survival time, dose: 100.0 mg/kg/injection, schedule: Q04DX003 (ip), vehicle: saline with Tween-80
[8] = endpoint: mean survival time, dose: 200.0 mg/kg/injection, schedule: Q04DX003 (ip), vehicle: saline with Tween-80
[9] = endpoint: mean survival time, dose: 400.0 mg/kg/injection, schedule: Q01DX009 (ip), vehicle: saline with Tween-80
[10] = endpoint: mean survival time, dose: 400.0 mg/kg/injection, schedule: Q04DX003 (ip), vehicle: saline with Tween-80
[11] = endpoint: mean survival time, dose: 100.0 mg/kg/injection, schedule: Q01DX001 (ip), vehicle: saline
[12] = endpoint: mean survival time, dose: 200.0 mg/kg/injection, schedule: Q01DX001 (ip), vehicle: saline
[13] = endpoint: mean survival time, dose: 100.0 mg/kg/injection, schedule: Q01DX009 (ip), vehicle: saline

Measured: T/C

N#CCN(CC#N)c1ccccc1
inactive: endpoint: mean survival time, dose: 1.56 mg/kg/injection, schedule: Q01DX001 (ip), vehicle: other 95 % of control | endpoint: mean survival time, dose: 3.13 mg/kg/injection, schedule: Q01DX001 (ip), vehicle: other 95 % of control | endpoint: mean survival time, dose: 6.25 mg/kg/injection, schedule: Q01DX001 (ip), vehicle: other 98 % of control and 100 % of control

Cn1c(=O)c2[nH]c(-c3ccc(Cl)c(Cl)c3)nc2n(C)c1=O
inactive: endpoint: mean survival time, dose: 12.5 mg/kg/injection, schedule: Q01DX005 (ip), vehicle: other 101 % of control | endpoint: mean survival time, dose: 25.0 mg/kg/injection, schedule: Q01DX005 (ip), vehicle: other 92 % of control | endpoint: mean survival time, dose: 50.0 mg/kg/injection, schedule: Q01DX005 (ip), vehicle: other 92 % of control | endpoint: mean survival time, dose: 100.0 mg/kg/injection, schedule: Q01DX005 (ip), vehicle: other 87 % of control | endpoint: mean survival time, dose: 200.0 mg/kg/injection, schedule: Q01DX005 (ip), vehicle: other 89 % of control

O=C1C=C(NC2CCCCCC2)C(=O)c2nccnc21
inactive: endpoint: mean survival time, dose: 6.25 mg/kg/injection, schedule: Q01DX009 (ip), vehicle: saline with Tween-80 91 % of control | endpoint: mean survival time, dose: 12.5 mg/kg/injection, schedule: Q01DX009 (ip), vehicle: saline with Tween-80 95 % of control | endpoint: mean survival time, dose: 25.0 mg/kg/injection, schedule: Q01DX009 (ip), vehicle: saline with Tween-80 91 % of control | [1] 93 % of control

CC(C)/C=C\C=C\C(C)C
inactive: [1] 96 % of control | [2] 103 % of control | [3] 96 % of control

CC(C)CCCCCOC(=O)Nc1cccc2ccccc12
inactive: [4] 92 % of control | [5] 89 % of control | [6] 92 % of control

Cn1c(=O)[nH]c2nncnc2c1=O
inactive: endpoint: mean survival time, dose: 2.0 mg/kg/injection, schedule: Q01DX009 (ip), vehicle: water 103 % of control | endpoint: mean survival time, dose: 4.0 mg/kg/injection, schedule: Q01DX009 (ip), vehicle: water 97 % of control | endpoint: mean survival time, dose: 8.0 mg/kg/injection, schedule: Q01DX009 (ip), vehicle: water 97 % of control | endpoint: mean survival time, dose: 16.0 mg/kg/injection, schedule: Q01DX009 (ip), vehicle: water 98 % of control | endpoint: mean survival time, dose: 32.0 mg/kg/injection, schedule: Q01DX009 (ip), vehicle: water 101 % of control | endpoint: mean survival time, dose: 375.0 micrograms/kg/injection, schedule: Q01DX009 (ip), vehicle: saline 100 % of control | endpoint: mean survival time, dose: 750.0 micrograms/kg/injection, schedule: Q01DX009 (ip), vehicle: saline 104 % of control | endpoint: mean survival time, dose: 1500.0 micrograms/kg/injection, schedule: Q01DX009 (ip), vehicle: saline 100 % of control | endpoint: mean survival time, dose: 3000.0 micrograms/kg/injection, schedule: Q01DX009 (ip), vehicle: saline 100 % of control

Brc1ccc(N=C=C(c2ccccc2)c2ccccc2)cc1
inactive: [1] 98 % of control | [2] 96 % of control | [7] 92 % of control | [3] 102 % of control | [8] 101 % of control

CC(=O)C1C(=O)OC2(C)C(=O)C3=COC(/C=C\C(C)=C/C(C)C)=CC3=CC12 (stereo not given)
inactive: [2] 100 % of control | [3] 104 % of control | [8] 91 % of control | [9] 111 % of control | [10] 88 % of control

CC(C#N)(Cc1ccccc1)Nc1ccccc1 (stereo not given)
inactive: [7] 97 % of control | [8] 91 % of control

COC(=O)CC(OC)OC
inactive: endpoint: mean survival time, dose: 100.0 mg/kg/injection, schedule: Q04DX003 (ip), vehicle: saline 103 % of control | endpoint: mean survival time, dose: 200.0 mg/kg/injection, schedule: Q04DX003 (ip), vehicle: saline 94 % of control | endpoint: mean survival time, dose: 400.0 mg/kg/injection, schedule: Q04DX003 (ip), vehicle: saline 92 % of control

CCOC(CC)c1ccccc1 (stereo not given)
inactive: [1] 103 % of control | [2] 103 % of control | [3] 106 % of control

N#CCCOc1ccc(Cl)cc1
inactive: [1] 107 % of control | [2] 97 % of control | [3] 96 % of control

CCCC1(c2ccccc2)C(=O)NCNC1=O
inactive: endpoint: median survival time, dose: 25.0 mg/kg/injection, schedule: Q01DX005 (ip), vehicle: Klucel (hydroxypropylcellulose) (HPC) 101 % of control | endpoint: median survival time, dose: 50.0 mg/kg/injection, schedule: Q01DX005 (ip), vehicle: Klucel (hydroxypropylcellulose) (HPC) 97 % of control | endpoint: median survival time, dose: 100.0 mg/kg/injection, schedule: Q01DX005 (ip), vehicle: Klucel (hydroxypropylcellulose) (HPC) 97 % of control | endpoint: median survival time, dose: 200.0 mg/kg/injection, schedule: Q01DX005 (ip), vehicle: Klucel (hydroxypropylcellulose) (HPC) 94 % of control | endpoint: median survival time, dose: 400.0 mg/kg/injection, schedule: Q01DX005 (ip), vehicle: Klucel (hydroxypropylcellulose) (HPC) 104 % of control

COc1cc(Cl)ccc1NC(=O)Nc1cc(C)on1
inactive: [1] 100 % of control | [2] 95 % of control | [3] 95 % of control

COc1cc(C(=O)C=[N+]=[N-])cc(OC)c1OC(C)=O
inactive: [11] 91 % of control | [12] 96 % of control | endpoint: mean survival time, dose: 400.0 mg/kg/injection, schedule: Q01DX001 (ip), vehicle: saline 110 % of control

Nc1ccc(CCc2ccccc2)cc1
inactive: endpoint: mean survival time, dose: 50.0 mg/kg/injection, schedule: Q04DX002 (ip), vehicle: saline with Tween-80 98 % of control and 105 % of control | endpoint: mean survival time, dose: 50.0 mg/kg/injection, schedule: Q04DX003 (ip), vehicle: saline with Tween-80 104 % of control | [7] 100 % of control and 101 % of control and 107 % of control | [8] 92 % of control and 104 % of control

O=[N+]([O-])c1ccc2[nH]c3c(c2c1)CSCC3
inactive: endpoint: mean survival time, dose: 100.0 mg/kg/injection, schedule: Q01DX009 (ip), vehicle: Klucel (hydroxypropylcellulose) (HPC) 121 % of control | endpoint: mean survival time, dose: 200.0 mg/kg/injection, schedule: Q01DX009 (ip), vehicle: Klucel (hydroxypropylcellulose) (HPC) 97 % of control | endpoint: mean survival time, dose: 400.0 mg/kg/injection, schedule: Q01DX009 (ip), vehicle: Klucel (hydroxypropylcellulose) (HPC) 92 % of control

COCC(=O)c1ccccc1
inactive: [2] 96 % of control | [3] 96 % of control | [9] 94 % of control

CC(C)C/C=N/NC(=O)c1ccc[n+](C)c1
inactive: endpoint: mean survival time, dose: 50.0 mg/kg/injection, schedule: Q01DX001 (ip), vehicle: saline 107 % of control | [11] 109 % of control | [12] 103 % of control

CCOC(=O)C#Cc1cccc(C(=O)OC)c1-c1c(I)cccc1C(=O)OC
inactive: endpoint: median survival time, dose: 12.5 mg/kg/injection, schedule: Q04DX003 (ip), vehicle: saline with Tween-80 100 % of control | endpoint: median survival time, dose: 25.0 mg/kg/injection, schedule: Q04DX003 (ip), vehicle: saline with Tween-80 100 % of control | endpoint: median survival time, dose: 50.0 mg/kg/injection, schedule: Q04DX003 (ip), vehicle: saline with Tween-80 88 % of control | endpoint: median survival time, dose: 100.0 mg/kg/injection, schedule: Q04DX003 (ip), vehicle: saline with Tween-80 88 % of control

CNC(=O)OCc1c(COC(=O)NC)c(-c2ccc(F)cc2)n2c1CCC2
inactive: endpoint: mean survival time, dose: 3.13 mg/kg/injection, schedule: Q01DX009 (ip), vehicle: Klucel (hydroxypropylcellulose) (HPC) 115 % of control | endpoint: mean survival time, dose: 6.25 mg/kg/injection, schedule: Q01DX009 (ip), vehicle: Klucel (hydroxypropylcellulose) (HPC) 107 % of control | endpoint: mean survival time, dose: 12.5 mg/kg/injection, schedule: Q01DX009 (ip), vehicle: Klucel (hydroxypropylcellulose) (HPC) 118 % of control

NC1=NCN2C(=N1)OC1C(O)C(CO)OC12 (stereo not given)
inactive: endpoint: mean survival time, dose: 1.56 mg/kg/injection, schedule: Q01DX009 (ip), vehicle: saline 94 % of control and 106 % of control | endpoint: mean survival time, dose: 3.12 mg/kg/injection, schedule: Q01DX009 (ip), vehicle: saline 91 % of control and 102 % of control | endpoint: mean survival time, dose: 6.25 mg/kg/injection, schedule: Q01DX009 (ip), vehicle: saline 91 % of control and 103 % of control | endpoint: mean survival time, dose: 12.5 mg/kg/injection, schedule: Q01DX009 (ip), vehicle: saline 91 % of control | endpoint: mean survival time, dose: 25.0 mg/kg/injection, schedule: Q01DX009 (ip), vehicle: saline 91 % of control and 100 % of control | endpoint: mean survival time, dose: 50.0 mg/kg/injection, schedule: Q01DX009 (ip), vehicle: saline 91 % of control and 97 % of control | [13] 92 % of control and 96 % of control | endpoint: mean survival time, dose: 200.0 mg/kg/injection, schedule: Q01DX009 (ip), vehicle: saline 88 % of control and 100 % of control

CN(C)/N=C/c1ccc(-c2ccccc2)cc1
inactive: [4] 101 % of control | [5] 103 % of control | [6] 112 % of control

CCCCCOc1ccccc1Cl
inactive: endpoint: mean survival time, dose: 100.0 mg/kg/injection, schedule: Q04DX002 (ip), vehicle: saline with Tween-80 101 % of control | endpoint: mean survival time, dose: 200.0 mg/kg/injection, schedule: Q04DX002 (ip), vehicle: saline with Tween-80 98 % of control

COc1cc2c(cc1OC)C13CCN4CC5=CCOC6CC(=O)N2C1C6C5CC43 (stereo not given) (tested in a mixture with another compound)
inactive: [4] 110 % of control | [13] 93 % of control

O=c1c(Cl)cc(Cl)cn1S(=O)(=O)c1ccc([N+](=O)[O-])cc1
inactive: [2] 100 % of control | [7] 102 % of control | [3] 102 % of control | [8] 102 % of control | [9] 98 % of control | [10] 101 % of control
